Reference: patent US11072812B2, “Substrates for covalent tethering of proteins to functional groups or solid surfaces” (PROMEGA CORPORATION, priority 2013, dated 2021)
“Also recorded” adds a separate entry of the source.

How the values were obtained:
[1] = target: T1, glucocorticoid receptor (GR) (Homo sapiens, UniProt P04150); experiment: Glucocorticoid receptor competitor assay (fluorescence polarization, Life Technology); type: binding; conditions: dexamethasone-chloroalkane conjugates (carbamate linker = PBI-4980)
T1 construct: purchased Life Technology
T1 sequence (P04150 1-777): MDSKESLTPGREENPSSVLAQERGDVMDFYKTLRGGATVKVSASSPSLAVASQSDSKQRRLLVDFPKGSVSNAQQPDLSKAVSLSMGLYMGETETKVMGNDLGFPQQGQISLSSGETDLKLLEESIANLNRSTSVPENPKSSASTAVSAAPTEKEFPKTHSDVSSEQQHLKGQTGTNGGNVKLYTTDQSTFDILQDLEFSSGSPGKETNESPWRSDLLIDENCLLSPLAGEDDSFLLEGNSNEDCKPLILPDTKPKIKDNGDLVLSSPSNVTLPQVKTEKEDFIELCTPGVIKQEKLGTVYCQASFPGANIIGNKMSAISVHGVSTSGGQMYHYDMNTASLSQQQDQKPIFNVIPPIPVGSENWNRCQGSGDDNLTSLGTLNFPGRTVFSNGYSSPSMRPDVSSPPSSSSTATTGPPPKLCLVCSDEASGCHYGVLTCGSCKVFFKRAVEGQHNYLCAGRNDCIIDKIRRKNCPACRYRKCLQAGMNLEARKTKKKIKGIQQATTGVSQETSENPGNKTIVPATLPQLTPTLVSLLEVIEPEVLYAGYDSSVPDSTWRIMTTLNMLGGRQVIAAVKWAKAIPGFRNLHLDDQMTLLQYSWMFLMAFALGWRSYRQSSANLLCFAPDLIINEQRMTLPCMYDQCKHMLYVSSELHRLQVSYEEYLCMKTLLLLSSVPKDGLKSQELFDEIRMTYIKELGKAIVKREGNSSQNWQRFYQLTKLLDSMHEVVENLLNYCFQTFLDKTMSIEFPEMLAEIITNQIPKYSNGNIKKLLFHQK
Description: c) Binding efficiency to the target glucocorticoid receptor (GR) was done using the glucocorticoid receptor competitor assay (Life Technology) as recommended by the manufacturer.

HaloTag® protein [2] = experiment: Binding efficiency/kinetics to HaloTag protein in cell lysate (chase with fluorescent HaloTag ligand, SDS-PAGE); conditions: 1 μM; for binding efficiency / labeling kinetics to HaloTag protein in lysate: methotrexate-chloroalkane conjugates, 0-60 min (O4 = PBI-4849, O6 = PBI-4850)
Experimental: a) Binding efficiency to HaloTag® protein in lysate was measured by adding the methotrexate-chloroalkane conjugates to lysate from cells expressing a HaloTag® protein to a final concentration of 1 μM. Following 0-60 mins of binding, the reactions were chased with 1 μM fluorescent HaloTag® ligand. Unbound HaloTag® protein was detected through binding to the fluorescent HaloTag® ligand followed by analysis on SDS-PAGE gel and detection on a fluorescent gel scanner.
a) Binding efficiency to HaloTag® protein in lysate was measured by adding the dexamethasone-chloroalkane conjugates to lysate from cells expressing a HaloTag® protein to a final concentration of 1 μM. Following 0-60 mins of binding, the reactions were chased with 1 μM fluorescent HaloTag® ligand. Unbound HaloTag® protein was detected through binding to the fluorescent HaloTag ligand followed by analysis on SDS-PAGE gel and detection on a fluorescent gel scanner.
a) Binding kinetics to HaloTag® protein in cell lysate was measured by adding the modified BIRB796-chloroalkane conjugates to lysate from cells expressing a HaloTag® protein at a final concentration of 1 μM. After 0-60 min of binding, the reactions were chased with 1 μM fluorescent HaloTag® ligand (Promega Corporation). Unbound HaloTag® protein was detected through binding to the fluorescent HaloTag® ligand followed by analysis on SDS-PAGE and detection on a fluorescent gel scanner.
Following 0-60 min of binding, the reactions were chased with 1 μM fluorescent HaloTag® ligand. Unbound HaloTag® protein was detected through binding to the fluorescent HaloTag® ligand followed by analysis on SDS-PAGE and detection on a fluorescent gel scanner.
a) Binding kinetics to HaloTag® protein in cell lysate was measured by adding the dasatinib-chloroalkane conjugates to lysate (final concentration of 1 μM) from cells expressing a HaloTag® protein. Following 0-60 min of binding, the reactions were chased with 1 μM fluorescent HaloTag® ligand. Unbound HaloTag® protein was detected through binding to the fluorescent HaloTag® ligand followed by analysis on SDS-PAGE and detection on a fluorescent gel scanner.

HaloTag® protein [3] = experiment: Binding efficiency/kinetics to HaloTag protein in cells (cell permeability; chase with fluorescent HaloTag ligand, SDS-PAGE); type: cell-based; conditions: 10 μM
Experimental: b) Binding efficiency to HaloTag® protein in cells was measured by adding the methotrexate-chloroalkane conjugates to cells expressing a HaloTag® protein to a final concentration of 10 μM. Following 0-120 mins of binding, the reactions were chased with 5 μM fluorescent HaloTag® ligand. Unbound HaloTag® protein was detected through binding to the fluorescent HaloTag® ligand followed by cell lysis, analysis on a SDS-PAGE gel and detection on a fluorescent gel scanner.
b) Binding efficiency to HaloTag® protein in cells was measured by adding the dexamethasone-chloroalkane conjugates to cells expressing a HaloTag® protein to a final concentration of 10 μM. Following 0-60 mins of binding, the reaction was chased with 5 μM fluorescent HaloTag ligand. Unbound HaloTag® protein was detected through binding to the fluorescent HaloTag® ligand followed by cell lysis, analysis on SDS-PAGE gel and detection on a fluorescent gel scanner.
b) Binding kinetics to HaloTag® protein in cells was measured by adding the modified BIRB796-chloroalkane conjugates to cells expressing a HaloTag® protein at a final concentration of 10 μM. Following 0-60 min of binding, the reactions were chased with 5 μM fluorescent HaloTag® ligand. Unbound HaloTag® protein was detected through binding to the fluorescent HaloTag® ligand followed by cell lysis, analysis on SDS-PAGE and detection on a fluorescent gel scanner.
Following 0-180 min of binding, the reactions were chased with 5 μM fluorescent HaloTag® ligand. Unbound HaloTag® protein was detected through binding to the fluorescent HaloTag® ligand followed by cell lysis, analysis on SDS-PAGE and detection on a fluorescent gel scanner.
b) Binding kinetics to HaloTag® protein in cells was measured by adding the dasatinib-chloroalkane conjugates (final concentration of 10 μM) to cells expressing a HaloTag protein which localized to the cytoplasm or the nucleus. Following 0-90 min of binding, the reactions were chased with 5 μM fluorescent HaloTag® ligand. Unbound HaloTag® protein was detected through binding to the fluorescent HaloTag® ligand followed by cell lysis, analysis on SDS-PAGE and detection on a fluorescent gel scanner.

NanoLuc:GR fusion = target: T2, NanoLuc:GR fusion (Homo sapiens, UniProt P04150); experiment: Pull-down of NanoLuc:GR fusion from live HEK293 cells onto HaloTag protein beads; type: cell-based; conditions: HEK293, 10 μM conjugate, 2 h; beads 45 min; release with 150 μM dexamethasone; PBI-4980 compared with PBI-4025
T2 construct: expressed in transfected cells; host or cells: HEK293
T2 sequence (P04150 1-777): T1 sequence (P04150 1-777)
Experimental: HEK293 cells were plated and transfected using PEI with plasmid DNA encoding NanoLuc:GR fusion in wells of a 96-well plate. The DNA was diluted 1:50 with a promoterless carrier DNA plasmid (pCI neo) to a final concentration of 80 ng total DNA per well. Twenty-four hours post-transfection, cells were serum starved for additional 24 hours then incubated with a final concentration of 10 μM PBI-4980 or PBI-4025 while control cells were not treated with the conjugated drug. Following equilibration binding of 2 h, the media was removed, cells quickly washed with PBS and lysed in detergent-based lysis buffer for 10 min. Cell lysates were than transferred to wells of a 96-well plate containing 0.5 μl settled paramagnetic HaloTag® protein beads and incubated with shaking for 45 min. Following binding the unbound fraction was removed, the HaloTag® protein paramagnetic beads were washed 3×, and the captured NanoLuc fusion was specifically released from the beads by competition with 150 μM unconjugated Dexamethasone for 60 min. The released NanoLuc:GR (+PBI-4980 or +PBI-4025) and control samples were detected by using the NanoGlo® assay reagent (Promega Corp).

[4] = target: T3, NanoLuc-DHFR fusion protein (Homo sapiens, UniProt P00374); experiment: Pull-down of NanoLuc-DHFR fusion from living HEK293 cells onto HaloTag protein beads; type: cell-based; conditions: HEK293, 10 uM conjugate, 2 h; beads 45 min; release with 150 μM methotrexate
T3 construct: expressed in transfected cells; host or cells: HEK293
T3 sequence (P00374 1-187): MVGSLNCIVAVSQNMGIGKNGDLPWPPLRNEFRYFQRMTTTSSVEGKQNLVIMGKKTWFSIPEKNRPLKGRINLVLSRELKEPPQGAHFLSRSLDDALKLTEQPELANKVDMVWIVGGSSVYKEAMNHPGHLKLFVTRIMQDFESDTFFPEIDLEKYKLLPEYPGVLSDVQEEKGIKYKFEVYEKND
Experimental: HEK293 cells were plated and transfected using PEI with plasmid DNA encoding a NANOLUC-DHFR fusion in wells of a 96-well plate. The DNA was diluted 1:50 with a promoterless carrier DNA plasmid (pCI) to a final concentration of 80 ng total DNA per well. Twenty-four hours post-transfection, cells were serum starved for additional 24 hours and then treated with […] 10 uM PBI-4848 or PBI-5015 while control cells were not treated with the conjugated drug. Following equilibration binding of 2 h, the media was removed, and the cells quickly washed with PBS and lysed in detergent-based lysis buffer for 10 min. Cell lysates were then transferred to wells of a 96-well plate containing 0.5 μl settled paramagnetic HALOTAG protein beads and incubated with shaking for 45 min. Following binding, the unbound fraction was removed, the HALOTAG protein paramagnetic beads washed, 150 μM unconjugated methotrexate added, and the captured NANOLUC:DHFR specifically released from the beads by competition with the unconjugated methotrexate for 60 min. The released NANOLUC:DHFR (+PBI-5015 or +PBI-4848) and control samples were detected by NANOGLO luciferase detection reagent.

[5] = methotrexate-chloroalkane conjugates, 0-120 min (O4 = PBI-4849, O6 = PBI-4850)

Compound: C[C@@H]1CC2[C@@H]3CCC4=CC(=O)C=C[C@]4(C)[C@@]3(F)[C@@H](O)C[C@]2(C)[C@@]1(O)C(=O)NCCOCCOCCOCCOCCC(=O)NCCOCCOCCCCCCCl (stereo partly shown) [PBI-4025]
- affinity / binding efficiency to glucocorticoid receptor [1]: highest affinity; also recorded: best binding efficiency; also recorded: higher affinity

Compound: CC(C)(C)c1cc(NC(=O)Nc2ccccc2)n(-c2cccc(CNC(=O)CNC(=O)CCC(=O)NCCOCCOCCCCCCCl)c2)n1 [PBI-4832, BIRB* O2 Chloroalkane]
- binding kinetics to HaloTag protein in cell lysate (HaloTag® protein [2]; modified BIRB796-chloroalkane conjugates, 0-60 min): fast binding kinetics

Compound: CN(Cc1cnc2nc(N)nc(N)c2n1)c1ccc(C(=O)NC(CCC(=O)NCCOCCOCCCCCCCl)C(=O)O)cc1 (stereo not shown) [PBI-4848, Methotrexate-O2 Chloroalkane]
- cell permeability/binding efficiency to HaloTag protein in cells (HaloTag® protein [3]; [5]): best cell permeability and binding efficiency; also recorded: higher cell permeability
- binding efficiency / labeling kinetics to HaloTag protein in lysate (HaloTag® protein [2]): fast labeling kinetics

Compound: C[C@@H]1CC2[C@@H]3CCC4=CC(=O)C=C[C@]4(C)[C@@]3(F)[C@@H](O)C[C@]2(C)[C@@]1(O)C(=O)NCCCCCNC(=O)OCCOCCOCCOC(=O)NCCOCCOCCCCCCCl (stereo partly shown) [PBI-4980, Dexamethasone Carbamate Chloroalkane]
- efficiency of Nluc:GR fusion pull down (NanoLuc:GR fusion): significantly higher
- cell permeability/binding efficiency to HaloTag protein in cells (HaloTag® protein [3]; dexamethasone-chloroalkane conjugates, 0-60 min (O4 = PBI-4026, O6 = PBI-4025)): best cell permeability/binding efficiency
- binding kinetics to HaloTag protein in lysate (HaloTag® protein [2]; dexamethasone-chloroalkane conjugates, 0-60 min): faster binding kinetics
- affinity / binding efficiency to glucocorticoid receptor [1]: best binding efficiency
- affinity / binding efficiency to glucocorticoid receptor ([1]; listed as carbamate linker): highest affinity

Compound: CN(Cc1cnc2nc(N)nc(N)c2n1)c1ccc(C(=O)NC(CCC(=O)NCCCCCNC(=O)OCCOCCOCCOC(=O)NCCOCCOCCCCCCCl)C(=O)O)cc1 (stereo not shown) [PBI-5015, Methotrexate Carbamate Chloroalkane]
- cell permeability/binding efficiency to HaloTag protein in cells (HaloTag® protein [3]; [5]): good cell permeability and binding efficiency; also recorded: best cell permeability and binding efficiency
- binding efficiency / labeling kinetics to HaloTag protein in lysate (HaloTag® protein [2]): fast labeling kinetics
- pull-down of Nluc:DHFR fusion from living cells [4]: efficiently pulled down

Compound: Cc1nc(Nc2ncc(C(=O)Nc3c(C)cccc3Cl)s2)cc(N2CCN(CCOC(=O)NCCOCCOCCCCCCCl)CC2)n1 [PBI-5590, Dasatinib Monocarbamate]
- binding kinetics to HaloTag protein in cell lysate (HaloTag® protein [2]; dasatinib-chloroalkane conjugates, 0-60 min, compared with PBI-5270): faster binding kinetics
